Source: PubChem BioAssay (NCI)
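Step 1: Grow cells in 96-well plates. Step 2: Expose to compound for 48 hours at 5 concentrations. Step 3: Interpolate endpoints linearly; if unreached, use highest concentration. GI50: concentration for 50% inhibition of growth. TGI: total growth inhibition.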

Experiments:
Assay in all cases: DTP human tumour cell line panel, 48 h
[1] = system: 786-0 renal
[2] = system: A498 renal
[3] = system: A549 NSCLC
[4] = system: ACHN renal
[5] = system: CAKI-1 renal
[6] = system: CCRF-CEM leukemia
[7] = system: COLO 205 colon
[8] = system: DU-145 prostate
[9] = system: EKVX NSCLC
[10] = system: HCC-2998 colon
[11] = system: HCT-116 colon
[12] = system: HL-60(TB) leukemia
[13] = system: HOP-62 NSCLC
[14] = system: HOP-92 NSCLC
[15] = system: HS 578T breast
[16] = system: HT29 colon
[17] = system: IGROV1 ovarian
[18] = system: K-562 leukemia
[19] = system: KM12 colon
[20] = system: LOX IMVI melanoma
[21] = system: M14 melanoma
[22] = system: MALME-3M melanoma
[23] = system: MCF7 breast
[24] = system: MDA-MB-231 breast
[25] = system: MDA-MB-435
[26] = system: MDA-N
[27] = system: MOLT-4 leukemia
[28] = system: NCI-H460 lung
[29] = system: NCI-H522 lung
[30] = system: OVCAR-3 ovarian
[31] = system: OVCAR-5 ovarian
[32] = system: OVCAR-8 ovarian
[33] = system: PC-3 prostate
[34] = system: RPMI-8226 leukemia
[35] = system: RXF 393 renal
[36] = system: SF-268 CNS
[37] = system: SF-295 CNS
[38] = system: SF-539 CNS
[39] = system: SK-MEL-2 melanoma
[40] = system: SK-MEL-28 melanoma
[41] = system: SK-MEL-5 melanoma
[42] = system: SK-OV-3 ovarian
[43] = system: SN12C renal
[44] = system: SNB-19 CNS
[45] = system: SNB-75 CNS
[46] = system: SR leukemia
[47] = system: SW-620 colon
[48] = system: T-47D breast
[49] = system: TK-10 renal
[50] = system: U251 CNS
[51] = system: UACC-257 melanoma
[52] = system: UACC-62 melanoma
[53] = system: UO-31 renal
[54] = system: BT-549 breast
[55] = system: HCT-15 colon
[56] = system: NCI-H226 lung
[57] = system: NCI-H23 lung
[58] = system: NCI/ADR-RES ovarian
[59] = system: OVCAR-4 ovarian

O=C1OC2(CCCCC2)C(Oc2ccc(Cl)cc2)=C1F
TGI [1]: > 100 µM
TGI [2]: > 100 µM
TGI [3]: > 100 µM
TGI [4]: > 100 µM
TGI [5]: > 100 µM
TGI [6]: 86.1 µM
TGI [7]: > 100 µM
TGI [8]: > 100 µM
TGI [9]: > 100 µM
TGI [10]: 57 µM
TGI [11]: > 100 µM
TGI [12]: 62.8 µM
TGI [13]: > 100 µM
TGI [14]: 82.5 µM
TGI [15]: > 100 µM
TGI [16]: > 100 µM
TGI [17]: > 100 µM
TGI [18]: > 100 µM
TGI [19]: > 100 µM
TGI [20]: > 100 µM
TGI [21]: > 100 µM
TGI [22]: 51.6 µM
TGI [23]: > 100 µM
TGI [24]: > 100 µM
TGI [25]: > 100 µM
TGI [26]: > 100 µM
TGI [27]: 48.5 µM
TGI [28]: > 100 µM
TGI [29]: 95.9 µM
TGI [30]: > 100 µM
TGI [31]: > 100 µM
TGI [32]: > 100 µM
TGI [33]: > 100 µM
TGI [34]: > 100 µM
TGI [35]: > 100 µM
TGI [36]: > 100 µM
TGI [37]: > 100 µM
TGI [38]: > 100 µM
TGI [39]: 61.8 µM
TGI [40]: 81.5 µM
TGI [41]: 33.3 µM
TGI [42]: > 100 µM
TGI [43]: > 100 µM
TGI [44]: > 100 µM
TGI [45]: > 100 µM
TGI [46]: > 100 µM
TGI [47]: > 100 µM
TGI [48]: > 100 µM
TGI [49]: > 100 µM
TGI [50]: > 100 µM
TGI [51]: 66.8 µM
TGI [52]: > 100 µM
TGI [53]: > 100 µM

COC1CCC(OC)C(c2nc3sccn3c2/C=N/N=C(N)N)C1 (stereo not given)
GI50 [1]: 19.7 µM
TGI [1]: 47 µM
GI50 [2]: 10.9 µM
TGI [2]: 41.5 µM
GI50 [3]: 47 µM
TGI [3]: > 100 µM
GI50 [4]: > 100 µM
TGI [4]: > 100 µM
GI50 [54]: 18.4 µM
TGI [54]: 42.4 µM
GI50 [5]: > 10.5 µM
TGI [5]: > 82.5 µM
GI50 [6]: 24.8 µM
TGI [6]: > 64.7 µM
GI50 [7]: 25.3 µM
TGI [7]: > 63.7 µM
GI50 [8]: 45.1 µM
TGI [8]: > 80.2 µM
GI50 [9]: 34.8 µM
TGI [9]: > 92.7 µM
GI50 [10]: 31.1 µM
TGI [10]: 54.5 µM
GI50 [11]: 4.9 µM
TGI [11]: 37.7 µM
GI50 [55]: > 100 µM
TGI [55]: > 100 µM
GI50 [12]: 1.21 µM
TGI [12]: > 36.7 µM
GI50 [13]: 17.2 µM
TGI [13]: 42.7 µM
GI50 [14]: 2.76 µM
TGI [14]: 30.5 µM
GI50 [15]: 24.6 µM
TGI [15]: 68.6 µM
GI50 [16]: 2.59 µM
TGI [16]: > 8.71 µM
GI50 [17]: 50 µM
TGI [17]: > 100 µM
GI50 [18]: 35.4 µM
TGI [18]: > 63.3 µM
GI50 [19]: 16 µM
TGI [19]: 40.2 µM
GI50 [20]: 28.5 µM
TGI [20]: 67.4 µM
GI50 [21]: 1.96 µM
TGI [21]: 35.4 µM
GI50 [22]: 1.7 µM
TGI [22]: 23.8 µM
GI50 [23]: 20.1 µM
TGI [23]: 45 µM
GI50 [24]: 1.68 µM
TGI [24]: 32.8 µM
GI50 [25]: 17.2 µM
TGI [25]: 36 µM
GI50 [27]: > 74.6 µM
TGI [27]: > 100 µM
GI50 [56]: 13.6 µM
TGI [56]: 47.5 µM
GI50 [57]: 3.69 µM
TGI [57]: > 35.5 µM
GI50 [28]: 27.7 µM
TGI [28]: > 76.5 µM
GI50 [29]: 30.4 µM
TGI [29]: > 72.2 µM
GI50 [58]: > 100 µM
TGI [58]: > 100 µM
GI50 [30]: 7.76 µM
TGI [30]: 36.3 µM
GI50 [59]: 43.5 µM
TGI [59]: > 100 µM
GI50 [31]: 2.84 µM
TGI [31]: > 51.7 µM
GI50 [32]: 22.1 µM
TGI [32]: 55.6 µM
GI50 [33]: 25 µM
TGI [33]: > 65.4 µM
GI50 [34]: 4.18 µM
TGI [34]: 43.9 µM
GI50 [35]: 24.8 µM
TGI [35]: > 82.9 µM
GI50 [36]: 18.5 µM
TGI [36]: 45.8 µM
GI50 [37]: 16.5 µM
TGI [37]: 34.1 µM
GI50 [38]: 20.4 µM
TGI [38]: 44 µM
GI50 [39]: 25.7 µM
TGI [39]: > 62.4 µM
GI50 [40]: 34.9 µM
TGI [40]: > 94.4 µM
GI50 [41]: 20.2 µM
TGI [41]: 54.3 µM
GI50 [42]: 47.1 µM
TGI [42]: > 100 µM
GI50 [43]: 22.4 µM
TGI [43]: 56.3 µM
GI50 [44]: 33.8 µM
TGI [44]: > 96.4 µM
GI50 [45]: 6.44 µM
TGI [45]: > 77.2 µM
GI50 [46]: 0.0201 µM
TGI [46]: 15 µM
GI50 [47]: 19.4 µM
TGI [47]: 53.1 µM
GI50 [48]: 31.9 µM
TGI [48]: > 65.4 µM
GI50 [49]: > 52.1 µM
TGI [49]: > 81.4 µM
GI50 [50]: 38.7 µM
TGI [50]: 73.4 µM
GI50 [51]: 5.61 µM
TGI [51]: 44.1 µM
GI50 [52]: 16.6 µM
TGI [52]: 32.4 µM
GI50 [53]: > 67.5 µM
TGI [53]: > 100 µM

N#Cc1nc(CN2C(=O)c3ccccc3C2=O)oc1N
TGI [1]: > 100 µM
TGI [2]: > 100 µM
TGI [3]: > 100 µM
TGI [4]: > 100 µM
TGI [5]: > 100 µM
TGI [6]: > 100 µM
TGI [7]: > 100 µM
TGI [8]: > 100 µM
TGI [10]: > 100 µM
TGI [11]: > 100 µM
TGI [55]: > 100 µM
TGI [13]: > 100 µM
TGI [14]: > 100 µM
TGI [15]: > 100 µM
TGI [16]: > 100 µM
TGI [17]: > 100 µM
TGI [18]: > 100 µM
TGI [19]: > 100 µM
TGI [21]: > 100 µM
TGI [22]: > 100 µM
TGI [23]: > 100 µM
TGI [24]: > 100 µM
TGI [25]: > 100 µM
TGI [26]: > 100 µM
TGI [27]: > 100 µM
TGI [56]: > 100 µM
TGI [28]: > 100 µM
TGI [29]: > 100 µM
TGI [58]: > 100 µM
TGI [30]: > 100 µM
TGI [59]: > 100 µM
TGI [31]: > 100 µM
TGI [32]: > 100 µM
TGI [33]: > 100 µM
TGI [34]: > 100 µM
TGI [35]: > 100 µM
TGI [36]: > 100 µM
TGI [37]: > 100 µM
TGI [38]: > 100 µM
TGI [39]: > 100 µM
TGI [40]: > 100 µM
TGI [41]: > 100 µM
TGI [42]: > 100 µM
TGI [43]: > 100 µM
TGI [45]: > 100 µM
TGI [46]: > 100 µM
TGI [47]: > 100 µM
TGI [48]: > 100 µM
TGI [49]: > 100 µM
TGI [50]: > 100 µM
TGI [51]: > 100 µM
